According to ChEMBL document CHEMBL3272329, “Stereochemical analogs of a muscarinic, ganglionic stimulant. 2. Cis and trans olefinic, epoxide, and cyclopropane analogs related to 4-[N-(3-chlorophenyl)carbamoyloxy]-2-butynyltrimethylammonium chloride (McN-A-343)” (1976):
Activity calls are given as the source filed them. The calls are words filed in the database; no cut-off is given here.

What was measured:
Felis catus [1] = experiment: Induction of ganglion stimulating activity in cat assessed as increase in blood pressure at 1 to 300 ug/kg, iv by […]; format: functional
Oryctolagus cuniculus [2] = species on record: Oryctolagus cuniculus; experiment: Agonist activity at muscarinic receptor in rabbit ileum assessed as […] relative to acetylcholine; format: tissue-based
Oryctolagus cuniculus [3] = species on record: Oryctolagus cuniculus; experiment: Agonist activity at muscarinic receptor in rabbit ileum assessed as […]; format: tissue-based
Felis catus [4] = experiment: Induction of ganglion stimulating activity in iv dosed cat assessed as slight increase in blood pressure administered at 300 ug/kg, iv by […]; format: functional, organism-based

Structure (SMILES) | Activity (Felis catus [1]) | Activity (Oryctolagus cuniculus [3]) | other results
C[N+](C)(C)CC#CCOC(=O)Nc1ccc(Cl)cc1 | Active | – | –
C[N+](C)(C)C/C=C/COC(=O)Nc1ccc(Cl)cc1.[I-] | – | – | fold change (FC) (Felis catus [1]): 3; Activity (Oryctolagus cuniculus [2]): 1%
C[N+](C)(C)C[C@@H]1C[C@H]1COC(=O)Nc1ccc(Cl)cc1 | inactive | – | –
CN(C)C[C@@H]1C[C@@H]1CO (relative stereo) | – | inactive | –
C[N+](C)(C)C/C=C/COC(=O)Nc1cccc(Cl)c1 | – | – | Activity (Felis catus [4]): Active
CN(C)C[C@H]1C[C@@H]1CO (relative stereo) | – | inactive | –
C[N+](C)(C)C/C=C\COC(=O)Nc1ccc(Cl)cc1.[I-] | – | inactive | Activity (Felis catus [4]): Active; fold change (FC) (Felis catus [1]): 3
C[N+](C)(C)C[C@H]1C[C@H]1COC(=O)Nc1ccc(Cl)cc1 (relative stereo) | inactive | – | –
C[N+](C)(C)CC#CCOC(=O)Nc1cccc(Cl)c1 | Active | – | –
C[N+](C)(C)C[C@H]1O[C@H]1COC(=O)Nc1ccc(Cl)cc1 (relative stereo) | Active | inactive | –
C[N+](C)(C)C[C@H]1O[C@@H]1COC(=O)Nc1ccc(Cl)cc1 (relative stereo) | Active | inactive | –
